{"source": "PubChem BioAssay AID1963969", "about": "(Molecular Pharmacology Branch, DTP, NCI, 2024)", "system": "817829-284-R-J1-PDC multi-cell spheroid viability", "assay": "Anticancer human tumor 817829-284-R-J1-PDC patient-derived colon adenocarcinoma cell line growth inhibition [PI3K]", "conditions": "for viability, T/C: stronger effect = lower value", "summary_of_the_method": "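Viability of mixed-cell spheroids was determined after exposure to pairwise combinations, one partner being inavolisib, alpelisib, duvelisib or copanlisib. Highest tested concentration matched clinical Cmax where known and 10 microM where not, descending in half-log steps.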", "note": "“And” between values parts separate entries of the source, which are not always exact repeats. Identical values can stand only once.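 Also: spheroids exposed to agents for seven days before readout.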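 For viability, T/C in this document: percent of vehicle DMSO control viability which is 100%.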", "data": [{"smiles": "CC(C)NCC(C(=O)N1CCN(c2ncnc3c2C(C)CC3O)CC1)c1ccc(Cl)cc1", "note": "(stereo unspecified) + Cc1nc(NC(=O)N2CCCC2C(N)=O)sc1-c1ccnc(C(C)(C)C(F)(F)F)c1", "values": [{"measurement": "IC50", "setting": "curve of first compound, second compound 0.0316 µM", "value": 249, "unit": "nM"}, {"measurement": "IC50", "setting": "curve of first compound, second compound 0.1 µM", "value": 193, "unit": "nM"}, {"measurement": "IC50", "setting": "curve of first compound, second compound 0.316 µM", "value": 203, "unit": "nM"}, {"measurement": "IC50", "setting": "curve of first compound, second compound 1 µM", "value": 165, "unit": "nM"}, {"measurement": "IC50", "setting": "curve of first compound, second compound 3.16 µM", "value": 69.2, "unit": "nM"}, {"measurement": "IC50", "setting": "curve of first compound, second compound 10 µM", "value": 38.8, "unit": "nM"}, {"measurement": "viability, T/C", "setting": "second compound 0.0316 µM, first compound 0.0316 µM", "value": 80.1, "unit": "%"}, {"measurement": "viability, T/C", "setting": "second compound 0.0316 µM, first compound 0.1 µM", "value": 62.1, "unit": "%"}, {"measurement": "viability, T/C", "setting": "second compound 0.0316 µM, first compound 0.316 µM", "value": 51.1, "unit": "%"}, {"measurement": "viability, T/C", "setting": "second compound 0.0316 µM, first compound 1 µM", "value": 21.8, "unit": "%"}, {"measurement": "viability, T/C", "setting": "second compound 0.0316 µM, first compound 3.16 µM", "value": 19.6, "unit": "%"}, {"measurement": "viability, T/C", "setting": "second compound 0.0316 µM, first compound 10 µM", "value": 13.5, "unit": "%"}, {"measurement": "viability, T/C", "setting": "second compound 0.1 µM, first compound 0.0316 µM", "value": 82.5, "unit": "%"}, {"measurement": "viability, T/C", "setting": "second compound 0.1 µM, first compound 0.1 µM", "value": 72.9, "unit": "%"}, {"measurement": "viability, T/C", "setting": "second compound 0.1 µM, first compound 0.316 µM", "value": 32.4, "unit": "%"}, {"measurement": "viability, T/C", "setting": "second compound 0.1 µM, first compound 1 µM", "value": 21.5, "unit": "%"}, {"measurement": "viability, T/C", "setting": "second compound 0.1 µM, first compound 3.16 µM", "value": 19.4, "unit": "%"}, {"measurement": "viability, T/C", "setting": "second compound 0.1 µM, first compound 10 µM", "value": 13.1, "unit": "%"}, {"measurement": "viability, T/C", "setting": "second compound 0.316 µM, first compound 0.0316 µM", "value": 55.5, "unit": "%"}, {"measurement": "viability, T/C", "setting": "second compound 0.316 µM, first compound 0.1 µM", "value": 107, "unit": "%"}, {"measurement": "viability, T/C", "setting": "second compound 0.316 µM, first compound 0.316 µM", "value": 30.5, "unit": "%"}, {"measurement": "viability, T/C", "setting": "second compound 0.316 µM, first compound 1 µM", "value": 24.4, "unit": "%"}, {"measurement": "viability, T/C", "setting": "second compound 0.316 µM, first compound 3.16 µM", "value": 17.3, "unit": "%"}, {"measurement": "viability, T/C", "setting": "second compound 0.316 µM, first compound 10 µM", "value": 11, "unit": "%"}, {"measurement": "viability, T/C", "setting": "second compound 1 µM, first compound 0.0316 µM", "value": 69.3, "unit": "%"}, {"measurement": "viability, T/C", "setting": "second compound 1 µM, first compound 0.1 µM", "value": 66.3, "unit": "%"}, {"measurement": "viability, T/C", "setting": "second compound 1 µM, first compound 0.316 µM", "value": 29.6, "unit": "%"}, {"measurement": "viability, T/C", "setting": "second compound 1 µM, first compound 1 µM", "value": 23, "unit": "%"}, {"measurement": "viability, T/C", "setting": "second compound 1 µM, first compound 3.16 µM", "value": 16.6, "unit": "%"}, {"measurement": "viability, T/C", "setting": "second compound 1 µM, first compound 10 µM", "value": 8.39, "unit": "%"}, {"measurement": "viability, T/C", "setting": "second compound 3.16 µM, first compound 0.0316 µM", "value": 69.3, "unit": "%"}, {"measurement": "viability, T/C", "setting": "second compound 3.16 µM, first compound 0.1 µM", "value": 40.2, "unit": "%"}, {"measurement": "viability, T/C", "setting": "second compound 3.16 µM, first compound 0.316 µM", "value": 23.9, "unit": "%"}, {"measurement": "viability, T/C", "setting": "second compound 3.16 µM, first compound 1 µM", "value": 19.2, "unit": "%"}, {"measurement": "viability, T/C", "setting": "second compound 3.16 µM, first compound 3.16 µM", "value": 15.3, "unit": "%"}, {"measurement": "viability, T/C", "setting": "second compound 3.16 µM, first compound 10 µM", "value": 6.49, "unit": "%"}, {"measurement": "viability, T/C", "setting": "second compound 10 µM, first compound 0.0316 µM", "value": 52.8, "unit": "%"}, {"measurement": "viability, T/C", "setting": "second compound 10 µM, first compound 0.1 µM", "value": 39.5, "unit": "%"}, {"measurement": "viability, T/C", "setting": "second compound 10 µM, first compound 0.316 µM", "value": 29, "unit": "%"}, {"measurement": "viability, T/C", "setting": "second compound 10 µM, first compound 1 µM", "value": 24.6, "unit": "%"}, {"measurement": "viability, T/C", "setting": "second compound 10 µM, first compound 3.16 µM", "value": 12.5, "unit": "%"}, {"measurement": "viability, T/C", "setting": "second compound 10 µM, first compound 10 µM", "value": 6.18, "unit": "%"}]}, {"smiles": "Cn1nccc1Nc1nccc(-c2ccn(C(CO)c3ccc(Cl)c(F)c3)c(=O)c2)n1", "note": "(stereo unspecified)", "values": [{"measurement": "viability, T/C", "setting": "compound 0.0316 µM", "value": "100% and 96.5%"}, {"measurement": "viability, T/C", "setting": "compound 0.1 µM", "value": "68.5% and 79.2%"}, {"measurement": "viability, T/C", "setting": "compound 0.316 µM", "value": "84.3% and 83.6%"}, {"measurement": "viability, T/C", "setting": "compound 1 µM", "value": "110% and 86.8%"}, {"measurement": "viability, T/C", "setting": "compound 3.16 µM", "value": "71.2% and 81.6%"}, {"measurement": "viability, T/C", "setting": "compound 10 µM", "value": "26% and 39.2%"}, {"measurement": "IC50", "setting": "curve of compound", "value": "5420 nM and 7460 nM"}]}, {"smiles": "CC1(C)CCC(Nc2ncc(C(F)(F)F)c(-c3c[nH]c4c(P(C)(C)=O)c(C#N)ccc34)n2)CN1", "note": "(stereo unspecified)", "values": [{"measurement": "viability, T/C", "setting": "compound 0.0316 µM", "value": "25.3% and 24.7%"}, {"measurement": "viability, T/C", "setting": "compound 0.1 µM", "value": "25% and 26.2%"}, {"measurement": "viability, T/C", "setting": "compound 0.316 µM", "value": "27.4% and 32.9%"}, {"measurement": "viability, T/C", "setting": "compound 1 µM", "value": "30.6% and 31.8%"}, {"measurement": "viability, T/C", "setting": "compound 3.16 µM", "value": "32.7% and 38.6%"}, {"measurement": "viability, T/C", "setting": "compound 10 µM", "value": "0.65% and 1.29%"}, {"measurement": "IC50", "setting": "curve of compound", "value": "< 31.6", "unit": "nM"}]}]}
